Source: patent publication US4786755A, “Diphenic acid monoamides” (Warner-Lambert Company, priority 1986, dated 1988)

Target: T1, 5-lipoxygenase (Homo sapiens, UniProt P09917)
T1 construct: endogenous in cells; host or cells: leukocytes isolated from fresh human blood
T1 sequence (P09917 1-674): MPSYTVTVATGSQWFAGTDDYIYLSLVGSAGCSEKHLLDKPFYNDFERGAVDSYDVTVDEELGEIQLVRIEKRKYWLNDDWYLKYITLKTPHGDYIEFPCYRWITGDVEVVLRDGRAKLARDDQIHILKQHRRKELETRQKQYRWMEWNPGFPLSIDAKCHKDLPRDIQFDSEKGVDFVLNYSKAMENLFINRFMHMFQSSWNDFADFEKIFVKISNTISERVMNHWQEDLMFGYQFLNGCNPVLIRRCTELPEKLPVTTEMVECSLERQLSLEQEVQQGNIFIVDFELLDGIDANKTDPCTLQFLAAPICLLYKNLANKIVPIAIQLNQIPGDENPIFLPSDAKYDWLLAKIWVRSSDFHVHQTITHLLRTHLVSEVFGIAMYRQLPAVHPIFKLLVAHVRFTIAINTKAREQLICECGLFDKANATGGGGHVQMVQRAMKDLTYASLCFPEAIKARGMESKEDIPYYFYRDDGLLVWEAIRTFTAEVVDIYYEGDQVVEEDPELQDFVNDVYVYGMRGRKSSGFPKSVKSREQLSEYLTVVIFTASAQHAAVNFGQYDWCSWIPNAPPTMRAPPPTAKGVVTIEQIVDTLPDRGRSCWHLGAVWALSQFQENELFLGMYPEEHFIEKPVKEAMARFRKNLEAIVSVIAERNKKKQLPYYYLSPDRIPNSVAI
Assay: 5-Lipoxygenase Assay Using Isolated Human Leukocytes (5LOA2)
Type: cell-based
Conditions: 20 μM exogenous arachidonic acid; read-out: IC50 5LOA (20)*
Protocol: 5-Lipoxygenase Assay Using Isolated Human Leukocytes (5LOA2)
The formation of 5-HETE in human leukocytes is considered a measure of 5-lipoxygenase activity. The protocol is described in the following.
Fresh heparinized or EDTA treated human blood is mixed with 6% dextran-3% dextrose in isotonic saline in the ratio 0.25 ml dextran solution per 1.0 ml blood. After mixing the blood is allowed to sit at room temperature for about 90 minutes while the RBC's settle. During this period, the plasma is removed with a plastic pipette to nalgens tubes.
The plasma is centrifuged at 800 rpm ([…]) on the Beckman Td-b refrigerated centrifuge to remove the platelets (which remain in the supernatant). The pellet, consisting of leukocytes and erythrocytes, is treated with 10 ml 0.87% ammonium chloride at room temperature for four minutes, lysing the red cells. At the end of four minutes the cells are diluted with a 2× volume of phosphate buffered saline, pH 7.4, and centrifuged for ten minutes. The cells are washed three times with the phosphate buffered saline. Any of the pelleted cell matter which is not easily resuspended is discarded during the washings--the material contains platelets (12-lipoxygenase activity).
After washing, the cells are resuspended in phosphate buffered saline containing 1.0 mM calcium and 0.5 mM magnesium. After counting the cells are diluted to 1.5-2.0×10^7 leukocytes per milliliter.
To each polypropylene reaction tube is added 0.48 ml leukocytes in Ca-Mg phosphate buffered saline, pH 7.4; 1-5 μl test compound dissolved in DMSO and buffer; or DMSO for control tubes.
The tubes preincubate at 37° C. for five minutes.
The reaction is started by adding 20 μl of the following, 0.5 μl 20 mM arachidonic acid--final concentration=20 μm; 1 μl 5 mM calcium ionophore A23187--final concentration=10 μm; and 18.5 μl buffer.
The reaction proceeds for five minutes, then is stopped by adding 0.5 ml 0.5 mM ice cold Tris buffer, pH 8.0. The tubes are chilled on ice for ten minutes and then extracted three times with a total of 3.5 ml ethyl acetate (3.0 ml removed).
The tubes can be stored at this point. For extended storage, the tubes should be filled with nitrogen.
The ethyl acetate is evaporated with a Sorvall Speed-Vac. The residue is dissolved in ethanol. The tubes can also be stored at this point at -20° C. under nitrogen.
A portion of the ethanol solution is injected into the HPLC system for 5-HETE quantitation.
The HPLC system consists of Hewlett-Packard 1040A UV spectrophotometry system with an HP85 computer. Injections are made automatically with a Waters WISP 710B. The pump is a Spectra Physics SP8700. Peaks are measured with a Hewlett Packard 3390A integrator. An RP C-18 column is used. The solvent system is isocratic; the solvent is 70% methanol and 30% 0.01M sodium acetate, pH 5.7, pumped at 1.0 ml/min. The flow is monitored at 235 nm for 5-HETE quantitation. Using a 15 cm Alltech Nucleosil C-18 5 μM column provides for a sample turnaround time of about 16 minutes.
IC50 is calculated as the amount of test agent that causes 50% inhibition of the formation of 5-HETE relative to the control.

Row | Compound | IC50
1 | O=C(O)c1ccccc1-c1ccccc1C(=O)Nc1ccc(Cc2ccc(Cl)c(Cl)c2)cc1 [Example 9] | 19 µM
2 | O=C(O)c1ccccc1-c1ccccc1C(=O)Nc1ccc(CCCc2ccccc2)cc1 [Example 16, [1,1'-Biphenyl]-2-carboxylic acid, 2'-[[[4-(3-phenylpropyl]phenyl]amino]carbonyl]-] | 22 µM
3 | COc1ccc(CCc2ccc(NC(=O)c3ccccc3-c3ccccc3C(=O)O)cc2)cc1OC [Example 7, [1,1'-Biphenyl]-2-carboxylic acid, 2'-[[[4-[2-(3,4-dimethoxyphenyl)ethyl]phenyl]amino]carbonyl]-] | > 20 µM

Compounds with a lower IC50, results first:

Row | IC50 | Compound
4 | 7.2 µM | O=C(O)c1ccccc1-c1ccccc1C(=O)Nc1ccc(CCCCc2ccccc2)cc1 [Example 19, [1,1'-Biphenyl]-2-carboxylic acid, 2'-[[[4-(4-phenylbutyl)phenyl]amino]carbonyl]-]
5 | 6.7 µM | O=C(O)c1ccccc1-c1ccccc1C(=O)Nc1ccc(CCCc2ccc(Cl)c(Cl)c2)cc1 [Example 1, [1,1'-Biphenyl]-2-carboxylic acid, 2'-[[[4-[3-(3,4-dichlorophenyl)propyl]phenyl]amino]carbonyl]-]
6 | 4.6 µM | O=C(O)c1ccccc1-c1ccccc1C(=O)Nc1ccc(CCCCc2ccc(Cl)c(Cl)c2)cc1 [Example 15, [1,1'-Biphenyl]-2-carboxylic acid, 2'-[[[4-[4-(3,4-dichlorophenyl)butyl]phenyl]amino]carbonyl]-]
